Reference: US9920063B2, “Melampomagnolide B derivatives” (Board of Trustees of the University of Arkansas, priority 2013, dated 2018)
pEC50: −log10 of the molar value. Like-named read-outs stand apart in the source and are kept apart here.

How the values were obtained:
SW-620 = experiment: NCI human tumor cell line panel, Colon Cancer
AML 052308 cells = experiment: Antileukemic activity against AML 052308 cells in culture
Experimental: For each compound, in vitro cell culture studies were performed in which a range of concentrations (0.25-20 μM) was tested for cytotoxicity against leukemia cell lines, primary leukemia specimens and normal bone marrow controls.

C=C1C(=O)O[C@H]2[C@H]1CC/C(COC(=O)c1cc3ccccc3[nH]1)=C\CC[C@@]1(C)O[C@@H]21 [BS-1-28]
CC50 (MDA-MB-468): 5170 nM | Percent Growth (MDA-MB-468; MDA-MB-468, Log10 Concentration −4.0): −52% | Percent Growth (MDA-MB-468; MDA-MB-468, Log10 Concentration −5.0): −71% | Percent Growth (MDA-MB-468; MDA-MB-468, Log10 Concentration −6.0): 3% | Percent Growth (MDA-MB-468; MDA-MB-468, Log10 Concentration −7.0): 95% | Percent Growth (MDA-MB-468; MDA-MB-468, Log10 Concentration −8.0): 76% | GI50 (MDA-MB-468; MDA-MB-468, NCI five dose): 307 nM | TGI (MDA-MB-468; MDA-MB-468, NCI five dose): 1.10E−6 | CC50 (SK-MEL-5): 5120 nM | Percent Growth (SK-MEL-5; SK-MEL-5, Log10 Concentration −4.0): −95% | Percent Growth (SK-MEL-5; SK-MEL-5, Log10 Concentration −5.0): −98% | Percent Growth (SK-MEL-5; SK-MEL-5, Log10 Concentration −6.0): 67% | Percent Growth (SK-MEL-5; SK-MEL-5, Log10 Concentration −7.0): 92% | Percent Growth (SK-MEL-5; SK-MEL-5, Log10 Concentration −8.0): 96% | GI50 (SK-MEL-5; SK-MEL-5, NCI five dose): 1260 nM | TGI (SK-MEL-5; SK-MEL-5, NCI five dose): 2.54E−6 | CC50 (NCI-H322M): 6470 nM | Percent Growth (NCI-H322M; NCI-H322M, Log10 Concentration −4.0): −89% | Percent Growth (NCI-H322M; NCI-H322M, Log10 Concentration −5.0): −82% | Percent Growth (NCI-H322M; NCI-H322M, Log10 Concentration −6.0): 88% | Percent Growth (NCI-H322M; NCI-H322M, Log10 Concentration −7.0): 95% | Percent Growth (NCI-H322M; NCI-H322M, Log10 Concentration −8.0): 81% | GI50 (NCI-H322M; NCI-H322M, NCI five dose): 1680 nM | TGI (NCI-H322M; NCI-H322M, NCI five dose): 3.29E−6 | Percent Growth (SW-620; Log10 Concentration −4.0): −75% | Percent Growth (SW-620; Log10 Concentration −5.0): −67% | Percent Growth (SW-620; Log10 Concentration −6.0): −19% | Percent Growth (SW-620; Log10 Concentration −7.0): 98% | Percent Growth (SW-620; Log10 Concentration −8.0): 93% | GI50 (SW-620; NCI five dose): 256 nM | TGI (SW-620; NCI five dose): 8.88E−7 | CC50 (SW-620; read-out: LC50, NCI five dose): 4470 nM | CC50 (K-562): > 100000 nM | Percent Growth (K-562; K-562, Log10 Concentration −4.0): −24% | Percent Growth (K-562; K-562, Log10 Concentration −5.0): −1% | Percent Growth (K-562; K-562, Log10 Concentration −6.0): 5% | Percent Growth (K-562; K-562, Log10 Concentration −7.0): 98% | Percent Growth (K-562; K-562, Log10 Concentration −8.0): 100% | GI50 (K-562; K-562, NCI five dose): 327 nM | TGI (K-562; K-562, NCI five dose): 5.79E−6 | CC50 (HCT-15): 2430 nM | Percent Growth (HCT-15; HCT-15, Log10 Concentration −4.0): −82% | Percent Growth (HCT-15; HCT-15, Log10 Concentration −5.0): −64% | Percent Growth (HCT-15; HCT-15, Log10 Concentration −6.0): −41% | Percent Growth (HCT-15; HCT-15, Log10 Concentration −7.0): 94% | Percent Growth (HCT-15; HCT-15, Log10 Concentration −8.0): 93% | GI50 (HCT-15; HCT-15, NCI five dose): 211 nM | TGI (HCT-15; HCT-15, NCI five dose): 4.95E−7 | CC50 (MALME-3M): 6070 nM | Percent Growth (MALME-3M; MALME-3M, Log10 Concentration −4.0): −82% | Percent Growth (MALME-3M; MALME-3M, Log10 Concentration −5.0): −87% | Percent Growth (MALME-3M; MALME-3M, Log10 Concentration −6.0): 82% | Percent Growth (MALME-3M; MALME-3M, Log10 Concentration −7.0): 91% | Percent Growth (MALME-3M; MALME-3M, Log10 Concentration −8.0): 91% | GI50 (MALME-3M; MALME-3M, NCI five dose): 1560 nM | TGI (MALME-3M; MALME-3M, NCI five dose): 3.07E−6 | CC50 (RPMI-8226): > 100000 nM | Percent Growth (RPMI-8226; RPMI-8226, Log10 Concentration −4.0): −34% | Percent Growth (RPMI-8226; RPMI-8226, Log10 Concentration −5.0): −26% | Percent Growth (RPMI-8226; RPMI-8226, Log10 Concentration −6.0): −8% | Percent Growth (RPMI-8226; RPMI-8226, Log10 Concentration −7.0): 92% | Percent Growth (RPMI-8226; RPMI-8226, Log10 Concentration −8.0): 97% | GI50 (RPMI-8226; RPMI-8226, NCI five dose): 264 nM | TGI (RPMI-8226; RPMI-8226, NCI five dose): 8.27E−7 | CC50 (CAKI-1): 4820 nM | Percent Growth (CAKI-1; CAKI-1, Log10 Concentration −4.0): −100% | Percent Growth (CAKI-1; CAKI-1, Log10 Concentration −5.0): −99% | Percent Growth (CAKI-1; CAKI-1, Log10 Concentration −6.0): 55% | Percent Growth (CAKI-1; CAKI-1, Log10 Concentration −7.0): 90% | Percent Growth (CAKI-1; CAKI-1, Log10 Concentration −8.0): 86% | GI50 (CAKI-1; CAKI-1, NCI five dose): 1080 nM | TGI (CAKI-1; CAKI-1, NCI five dose): 2.18E−6 | Fold more potent than parthenolide (AML 052308 cells; AML 052308 cells): around 3 fold | pEC50 (AML 052308 cells; AML 052308 cells in culture): 5.66 | CC50 (MDA-MB-435): 5850 nM | Percent Growth (MDA-MB-435; MDA-MB-435, Log10 Concentration −4.0): −96% | Percent Growth (MDA-MB-435; MDA-MB-435, Log10 Concentration −5.0): −76% | Percent Growth (MDA-MB-435; MDA-MB-435, Log10 Concentration −6.0): 44% | Percent Growth (MDA-MB-435; MDA-MB-435, Log10 Concentration −7.0): 98% | Percent Growth (MDA-MB-435; MDA-MB-435, Log10 Concentration −8.0): 97% | GI50 (MDA-MB-435; MDA-MB-435, NCI five dose): 763 nM | TGI (MDA-MB-435; MDA-MB-435, NCI five dose): 2.28E−6 | CC50 (CCRF-CEM): > 100000 nM | Percent Growth (CCRF-CEM; CCRF-CEM, Log10 Concentration −4.0): −37% | Percent Growth (CCRF-CEM; CCRF-CEM, Log10 Concentration −5.0): −15% | Percent Growth (CCRF-CEM; CCRF-CEM, Log10 Concentration −6.0): 3% | Percent Growth (CCRF-CEM; CCRF-CEM, Log10 Concentration −7.0): 90% | Percent Growth (CCRF-CEM; CCRF-CEM, Log10 Concentration −8.0): 99% | GI50 (CCRF-CEM; CCRF-CEM, NCI five dose): 286 nM | TGI (CCRF-CEM; CCRF-CEM, NCI five dose): 1.45E−6 | GI50 (CCRF-CEM; leukemia cell line CCRF-CEM): 288 nM | CC50 (HT29): 5970 nM | Percent Growth (HT29; HT29, Log10 Concentration −4.0): −80% | Percent Growth (HT29; HT29, Log10 Concentration −5.0): −57% | Percent Growth (HT29; HT29, Log10 Concentration −6.0): −25% | Percent Growth (HT29; HT29, Log10 Concentration −7.0): 109% | Percent Growth (HT29; HT29, Log10 Concentration −8.0): 103% | GI50 (HT29; HT29, NCI five dose): 276 nM | TGI (HT29; HT29, NCI five dose): 6.51E−7 | CC50 (A549/ATCC): 59300 nM | Percent Growth (A549/ATCC; A549/ATCC, Log10 Concentration −4.0): −53% | Percent Growth (A549/ATCC; A549/ATCC, Log10 Concentration −5.0): −41% | Percent Growth (A549/ATCC; A549/ATCC, Log10 Concentration −6.0): 92% | Percent Growth (A549/ATCC; A549/ATCC, Log10 Concentration −7.0): 96% | Percent Growth (A549/ATCC; A549/ATCC, Log10 Concentration −8.0): 91% | GI50 (A549/ATCC; A549/ATCC, NCI five dose): 2060 nM | TGI (A549/ATCC; A549/ATCC, NCI five dose): 4.90E−6 | CC50 (HCT-116): 841 nM | Percent Growth (HCT-116; HCT-116, Log10 Concentration −4.0): −91% | Percent Growth (HCT-116; HCT-116, Log10 Concentration −5.0): −94% | Percent Growth (HCT-116; HCT-116, Log10 Concentration −6.0): −62% | Percent Growth (HCT-116; HCT-116, Log10 Concentration −7.0): 96% | Percent Growth (HCT-116; HCT-116, Log10 Concentration −8.0): 97% | GI50 (HCT-116; HCT-116, NCI five dose): 196 nM | TGI (HCT-116; HCT-116, NCI five dose): 4.06E−7 | CC50 (OVCAR-5): 8220 nM | Percent Growth (OVCAR-5; OVCAR-5, Log10 Concentration −4.0): −88% | Percent Growth (OVCAR-5; OVCAR-5, Log10 Concentration −5.0): −59% | Percent Growth (OVCAR-5; OVCAR-5, Log10 Concentration −6.0): 57% | Percent Growth (OVCAR-5; OVCAR-5, Log10 Concentration −7.0): 96% | Percent Growth (OVCAR-5; OVCAR-5, Log10 Concentration −8.0): 85% | GI50 (OVCAR-5; OVCAR-5, NCI five dose): 1140 nM | TGI (OVCAR-5; OVCAR-5, NCI five dose): 3.07E−6 | CC50 (M14): 5760 nM | Percent Growth (M14; M14, Log10 Concentration −4.0): −92% | Percent Growth (M14; M14, Log10 Concentration −5.0): −80% | Percent Growth (M14; M14, Log10 Concentration −6.0): 46% | Percent Growth (M14; M14, Log10 Concentration −7.0): 87% | Percent Growth (M14; M14, Log10 Concentration −8.0): 88% | GI50 (M14; M14, NCI five dose): 814 nM | TGI (M14; M14, NCI five dose): 2.32E−6 | CC50 (OVCAR-4): 8430 nM | Percent Growth (OVCAR-4; OVCAR-4, Log10 Concentration −4.0): −84% | Percent Growth (OVCAR-4; OVCAR-4, Log10 Concentration −5.0): −58% | Percent Growth (OVCAR-4; OVCAR-4, Log10 Concentration −6.0): 48% | Percent Growth (OVCAR-4; OVCAR-4, Log10 Concentration −7.0): 88% | Percent Growth (OVCAR-4; OVCAR-4, Log10 Concentration −8.0): 4% | TGI (OVCAR-4; OVCAR-4, NCI five dose): 2.85E−6
